Data reported in PubChem BioAssay AID1259407 (Chemical Carcinogenesis Research Information System (CCRIS), 2018).
Calls of active or inactive are those of the source. No rule for the calls is given here.

System: CCRIS mutagenicity, Ames/micronucleus/aberration tests
Test: CCRIS mutagenicity studies
[1] = Test System: AMES SALMONELLA TYPHIMURIUM, Strain/Indicator: TA98, Metabolic Activation: NONE, Method: STANDARD PLATE
[2] = Test System: AMES SALMONELLA TYPHIMURIUM, Strain/Indicator: TA100, Metabolic Activation: NONE, Method: STANDARD PLATE
[3] = Test System: AMES SALMONELLA TYPHIMURIUM, Strain/Indicator: TA1537, Metabolic Activation: NONE, Method: STANDARD PLATE
[4] = Test System: AMES SALMONELLA TYPHIMURIUM, Strain/Indicator: TA1538, Metabolic Activation: NONE, Method: STANDARD PLATE

O=C(O)c1ccccc1[O-].O=C(O)c1ccccc1[O-].O=C(O)c1ccccc1[O-].[Cr+3]
mutagenic call (Test System: AMES SALMONELLA TYPHIMURIUM, Strain/Indicator: TA92, Metabolic Activation: NONE, Method: STANDARD PLATE): inactive; negative
mutagenic call (Test System: AMES SALMONELLA TYPHIMURIUM, Strain/Indicator: TA94, Metabolic Activation: NONE, Method: STANDARD PLATE): inactive; negative
mutagenic call [1]: inactive; negative
mutagenic call [2]: inactive; negative

OCC(O)CN1CCN(c2ccccc2)CC1 (stereo not given)
mutagenic call (Test System: CHINESE HAMSTER V-79, Strain/Indicator: V-79/6-THIOGUANINE, Metabolic Activation: NONE): inactive; negative
mutagenic call (Test System: CHINESE HAMSTER V-79, Strain/Indicator: V-79/6-THIOGUANINE, Metabolic Activation: S-9): inactive; negative

OCc1cc2ccc3cccc4ccc(c1)c2c34
mutagenic call (Test System: AMES SALMONELLA TYPHIMURIUM, Strain/Indicator: TA98, Metabolic Activation: HUMAN, LIVER, CYTOSOL, PAPS, Method: PREINCUBATION): active; positive

[Cl][Pd][Cl]
mutagenic call (Test System: AMES SALMONELLA TYPHIMURIUM, Strain/Indicator: TA98, Metabolic Activation: HAMSTER, LIVER, S-9, AROCLOR 1254 (10%), Method: PREINCUBATION): inactive; negative
mutagenic call (Test System: AMES SALMONELLA TYPHIMURIUM, Strain/Indicator: TA98, Metabolic Activation: NONE, Method: PREINCUBATION): inactive; negative
mutagenic call (Test System: AMES SALMONELLA TYPHIMURIUM, Strain/Indicator: TA98, Metabolic Activation: RAT, LIVER, S-9, AROCLOR 1254 (10%), Method: PREINCUBATION): inactive; negative
mutagenic call (Test System: AMES SALMONELLA TYPHIMURIUM, Strain/Indicator: TA100, Metabolic Activation: HAMSTER, LIVER, S-9, AROCLOR 1254 (10%), Method: PREINCUBATION): inactive; negative
mutagenic call (Test System: AMES SALMONELLA TYPHIMURIUM, Strain/Indicator: TA100, Metabolic Activation: NONE, Method: PREINCUBATION): inactive; negative
mutagenic call (Test System: AMES SALMONELLA TYPHIMURIUM, Strain/Indicator: TA100, Metabolic Activation: RAT, LIVER, S-9, AROCLOR 1254 (10%), Method: PREINCUBATION): inactive; negative
mutagenic call (Test System: AMES SALMONELLA TYPHIMURIUM, Strain/Indicator: TA1535, Metabolic Activation: HAMSTER, LIVER, S-9, AROCLOR 1254 (10%), Method: PREINCUBATION): inactive; negative
mutagenic call (Test System: AMES SALMONELLA TYPHIMURIUM, Strain/Indicator: TA1535, Metabolic Activation: NONE, Method: PREINCUBATION): inactive; negative
mutagenic call (Test System: AMES SALMONELLA TYPHIMURIUM, Strain/Indicator: TA1535, Metabolic Activation: RAT, LIVER, S-9, AROCLOR 1254 (10%), Method: PREINCUBATION): inactive; negative
mutagenic call (Test System: AMES SALMONELLA TYPHIMURIUM, Strain/Indicator: TA1537, Metabolic Activation: HAMSTER, LIVER, S-9, AROCLOR 1254 (10%), Method: PREINCUBATION): inactive; negative
mutagenic call (Test System: AMES SALMONELLA TYPHIMURIUM, Strain/Indicator: TA1537, Metabolic Activation: NONE, Method: PREINCUBATION): inactive; negative
mutagenic call (Test System: AMES SALMONELLA TYPHIMURIUM, Strain/Indicator: TA1537, Metabolic Activation: RAT, LIVER, S-9, AROCLOR 1254 (10%), Method: PREINCUBATION): inactive; negative

O=[N+]([O-])C1=Cc2cccc3c2c1cc1ccc2ccccc2c13
mutagenic call [1]: active; positive
mutagenic call (Test System: AMES SALMONELLA TYPHIMURIUM, Strain/Indicator: TA98, Metabolic Activation: RAT, LIVER, S-9, AROCLOR 1254, Method: STANDARD PLATE): inactive; negative
mutagenic call [2]: inactive; negative
mutagenic call (Test System: AMES SALMONELLA TYPHIMURIUM, Strain/Indicator: TA100, Metabolic Activation: RAT, LIVER, S-9, AROCLOR 1254, Method: STANDARD PLATE): active; positive
mutagenic call (Test System: AMES SALMONELLA TYPHIMURIUM, Strain/Indicator: TA1535, Metabolic Activation: NONE, Method: STANDARD PLATE): inactive; negative
mutagenic call (Test System: AMES SALMONELLA TYPHIMURIUM, Strain/Indicator: TA1535, Metabolic Activation: RAT, LIVER, S-9, AROCLOR 1254, Method: STANDARD PLATE): inactive; negative
mutagenic call [3]: active; positive
mutagenic call (Test System: AMES SALMONELLA TYPHIMURIUM, Strain/Indicator: TA1537, Metabolic Activation: RAT, LIVER, S-9, AROCLOR 1254, Method: STANDARD PLATE): active; positive
mutagenic call [4]: active; positive
mutagenic call (Test System: AMES SALMONELLA TYPHIMURIUM, Strain/Indicator: TA1538, Metabolic Activation: RAT, LIVER, S-9, AROCLOR 1254, Method: STANDARD PLATE): active; positive

C#CCOCC[n+]1ccccc1/C=N/O
mutagenic call (Test System: AMES SALMONELLA TYPHIMURIUM, Strain/Indicator: TA97, Metabolic Activation: NONE, Method: STANDARD PLATE): inactive; negative
mutagenic call (Test System: AMES SALMONELLA TYPHIMURIUM, Strain/Indicator: TA97, Metabolic Activation: RAT, LIVER, S-9, Method: STANDARD PLATE): inactive; negative
mutagenic call [2]: inactive; negative
mutagenic call (Test System: AMES SALMONELLA TYPHIMURIUM, Strain/Indicator: TA100, Metabolic Activation: RAT, LIVER, S-9, Method: STANDARD PLATE): inactive; negative
mutagenic call (Test System: AMES SALMONELLA TYPHIMURIUM, Strain/Indicator: TA104, Metabolic Activation: NONE, Method: STANDARD PLATE): inactive; negative
mutagenic call (Test System: AMES SALMONELLA TYPHIMURIUM, Strain/Indicator: TA104, Metabolic Activation: RAT, LIVER, S-9, Method: STANDARD PLATE): inactive; negative
mutagenic call [3]: inactive; negative
mutagenic call (Test System: AMES SALMONELLA TYPHIMURIUM, Strain/Indicator: TA1537, Metabolic Activation: RAT, LIVER, S-9, Method: STANDARD PLATE): inactive; negative
mutagenic call [4]: inactive; negative
mutagenic call (Test System: AMES SALMONELLA TYPHIMURIUM, Strain/Indicator: TA1538, Metabolic Activation: RAT, LIVER, S-9, Method: STANDARD PLATE): inactive; negative

C[C@]12CC[C@H]3C(=CCc4cc(O)ccc43)[C@@H]1CCC2=O
mutagenic call (Test System: UDS RAT HEPATOCYTES, Strain/Indicator: THY INCORP (18-20 HR), Metabolic Activation: NONE, Method: LIQUID SCINTILLATION COUNTING): inactive; negative
